# Reference: patent publication US4258184A, “Cephalosporin derivatives” (Meiji Seika Kaisha Ltd., priority 1976, dated 1981)
# Like-named read-outs stand apart in the source and are kept apart here.
# Columns and labels:
# [1] = system: Bacillus subtilis ATCC 6633; assay: Minimum prohibiting concentration by agar plate dilution method; format: cell-based; settings: ATCC6633; Table 1; agar plate dilution method; Bacillus subtilis ATCC 6633; read-out: Minimum prohibiting concentration
# From the text: (§1) Minimum prohibiting concentration (γ/ml)
# (§2) by means of agar plate dilution method
# [2] = system: Enterobacter species C73-17; assay: as above; format: cell-based; settings: C7317; Table 1; agar plate dilution method; Enterobacter species C73-17; read-out: Minimum prohibiting concentration
# From the text: as §1, §2
# Escherichia coli C73-1 = assay: as above; format: cell-based; settings: C731; Table 1; agar plate dilution method; Escherichia coli C73-1; read-out: Minimum prohibiting concentration
# From the text: as §1, §2
# [3] = system: Escherichia coli K-12 IAM 1264; assay: as above; format: cell-based; settings: IAM1264, Table 1
# From the text: as §1, §2
# [4] = system: Escherichia coli NIHJ JC-2; assay: as above; format: cell-based
# From the text: as §1, §2
# Proteus species C73-25 = assay: as above; format: cell-based; settings: read-out: Minimum prohibiting concentration
# From the text: as §1, §2
# Proteus species C73-34 = assay: as above; format: cell-based; settings: Table 1; agar plate dilution method; Proteus species C73-34; read-out: Minimum prohibiting concentration
# From the text: as §1, §2
# [5] = system: Pseudomonas aeruginosa IAM 1007; assay: as above; format: cell-based; settings: IAM1007; Table 1; agar plate dilution method; Pseudomonas aeruginosa IAM 1007; read-out: Minimum prohibiting concentration
# From the text: as §1, §2
# [6] = system: Pseudomonas species C73-2; assay: as above; format: cell-based; settings: C732, Table 1
# From the text: as §1, §2
# [7] = system: Pseudomonas species C73-83; assay: as above; format: cell-based; settings: C7383; Table 1; agar plate dilution method; Pseudomonas species C73-83; read-out: Minimum prohibiting concentration
# From the text: as §1, §2
# Serratia species MS-2 = assay: as above; format: cell-based
# From the text: as §1, §2
# Serratia species No. 2 = assay: as above; format: cell-based; settings: Table 1; agar plate dilution method; Serratia species No. 2; read-out: Minimum prohibiting concentration
# From the text: as §1, §2
# [8] = system: Staphylococcus aureus 209p JC-1; assay: as above; format: cell-based; settings: Table 1; agar plate dilution method; Staphylococcus aureus 209p JC-1; read-out: Minimum prohibiting concentration
# From the text: as §1, §2
# [9] = system: Staphylococcus aureus No. 26; assay: as above; format: cell-based
# From the text: as §1, §2
# [10] = system: Vibrio parahaemolyticus K-7; assay: as above; format: cell-based; settings: K7; Table 1; agar plate dilution method; Vibrio parahaemolyticus K-7; read-out: Minimum prohibiting concentration
# From the text: as §1, §2
# Proteus morganii Kono = assay: Minimum prohibiting/inhibition concentration by agar plate dilution method; format: cell-based; settings: Morganella morganii
# From the text: as §1, §2
# (§3) Minimum inhibition concentration (γ/ml) by means
# (§4) of agar plate dilution method
# [11] = system: Salmonella enteriditis No. 11; assay: as above; format: cell-based
# From the text: as §1, §2, §3, §4
# Salmonella typhi O-901-W = assay: as above; format: cell-based; settings: Salmonella enterica
# From the text: as §1, §2, §3, §4
# [12] = system: Staphylococcus aureus Smith S-424; assay: as above; format: cell-based; settings: SMITHS424; Table 1; agar plate dilution method; Staphylococcus aureus Smith S-424; read-out: Minimum prohibiting concentration
# From the text: as §1, §2, §3, §4
# [13] = system: Vibrio parahaemolyticus K-5; assay: as above; format: cell-based; settings: K5, agar plate dilution method, Vibrio parahaemolyticus K-5
# From the text: as §1, §2, §3, §4
# Klebsiella pneumoniae = assay: Minimum inhibition concentration by agar plate dilution method; format: cell-based; settings: Table 2
# From the text: as §3, §4
# [14] = system: Staphylococcus aureus Smith No. 26; assay: as above; format: cell-based; settings: Table 2; agar plate dilution method; Staphylococcus aureus Smith No. 26; read-out: Minimum inhibition concentration
# From the text: as §3, §4
# [15] = Toxicity, peritoneal administration to mice; format: in vivo; settings: 6 mice, administered peritoneally, dosage amount of 200 mg/l kg
# From the text: The toxicity of the compounds according to this invention is excellently low. […] As is clear from above, the compounds according to this invention are not only low in toxicity and excellent in anti-biotic activity but also have a prolonged action after administration. Therefore, they show excellent infection cure effect and infection-defense effect in before-or after-administration and in less dosage in comparison with known cephalosporin derivatives, for example, cephalothin, cefazolin or cephaloridine.
# [16] = Table 1, agar plate dilution method, Proteus species C73-25
# [17] = Table 1, agar plate dilution method, Staphylococcus aureus No. 26, read-out: Minimum prohibiting concentration
# [18] = read-out: Minimum inhibition concentration
# [19] = read-out: Minimum prohibiting concentration
# [20] = Table 1, agar plate dilution method, Salmonella enteriditis No. 11, read-out: Minimum prohibiting concentration
# [21] = Table 1, read-out: Minimum prohibiting concentration
# [22] = NIHJJC2, Table 1, agar plate dilution method, Escherichia coli NIHJ JC-2, read-out: Minimum prohibiting concentration
# [23] = MS2, Table 1, agar plate dilution method, Serratia species MS-2, read-out: Minimum prohibiting concentration
# [24] = Table 1, agar plate dilution method, Proteus morganii Kono, read-out: Minimum prohibiting concentration
SMILES,MIC [1] [µg/mL],MIC [2] [µg/mL],MIC (Escherichia coli C73-1) [µg/mL],MIC [3] [µg/mL],MIC (Proteus species C73-25; [16]) [µg/mL],MIC (Proteus species C73-34) [µg/mL],MIC [5] [µg/mL],MIC [6] [µg/mL],MIC [7] [µg/mL],MIC (Serratia species No. 2) [µg/mL],MIC [8] [µg/mL],"MIC [9, 17] [µg/mL]",MIC [10] [µg/mL],"MIC [11, 20] [µg/mL]",MIC (Salmonella typhi O-901-W; [19]) [µg/mL],MIC [12] [µg/mL],"MIC [13, 21] [µg/mL]","MIC [4, 22] [µg/mL]",MIC (Serratia species MS-2; [23]) [µg/mL],MIC (Proteus morganii Kono; [24]) [µg/mL],further results
"CC1(C)S[C@@H]2[C@H](NC(=O)C(C(=O)O)c3ccccc3)C(=O)N2[C@H]1C(=O)O (stereo partly shown) [Carbenicillin disodium, reference compound]",0.39,> 100,25,12.5,50,50,> 100,> 100,> 100,50,0.39,25,50,50,12.5,0.39,> 100,–,–,–,"MIC ([4]; Escherichia coli, NIHJJC2, read-out: Minimum prohibiting concentration): 12.5 µg/mL; MIC (Serratia species MS-2; Serratia, MS2, read-out: Minimum prohibiting concentration): 12.5 µg/mL; MIC (Proteus morganii Kono; [18]): 12.5 µg/mL; MIC (Proteus morganii Kono; [19]): 12.5 µg/mL; MIC ([11]; Table 2, agar plate dilution method, Salmonella enteritidis N0. 11, read-out: Minimum inhibition concentration): 50 µg/mL; MIC (Salmonella typhi O-901-W; [18]): 12.5 µg/mL; MIC ([13]; Table 2, read-out: Minimum inhibition concentration): > 100 µg/mL; MIC (Klebsiella pneumoniae): 25 µg/mL; MIC [14]: 25 µg/mL"
"Cc1nnc(SCC2=C(C(=O)O)N3C(=O)[C@@H](NC(=O)Cn4cnnn4)[C@H]3SC2)s1 [Cefazolin Na, reference compound]",0.2,50,6.25,3.13,–,12.5,> 100,> 100,> 100,> 100,0.1,–,12.5,–,3.13,0.78,6.25,6.25,> 100,> 100,"MIC (Proteus species C73-25): 3.13 µg/mL; MIC ([9]; Staphylococcus aureus, NO.26, read-out: Minimum prohibiting concentration): 3.13 µg/mL; MIC ([11]; Salmonella, NO.11, read-out: Minimum prohibiting concentration): 3.13 µg/mL"
"Cc1ccc(-c2ccc(C(=O)N[C@@H](C(=O)NC3C(=O)N4C(C(=O)O)=C(CSc5nnc(C(N)=O)s5)CS[C@H]34)c3ccccc3)c(O)n2)cc1 (stereo partly drawn) [Example 2, 7-{D(-)-α-[2-hydroxy-6-(p-tolyl)pyridine-3-carbonylamino]phenylacetamido}-3-(5-carbamoyl-1,3,4-thiadiazol-2-ylthiomethyl)-3-cephem-4-carboxylic acid]",1.56,50,25,6.25,25,12.5,100,100,100,100,0.78,6.25,12.5,0.39,3.13,0.78,25,25,50,100,mortality [15]: any mouse did not die
